Reference: the NIST ThermoML archive (doi:10.1007/s10765-015-2009-x)

Test: mn = molality of the nth substance listed, in mol/kg
Conditions: 101 kPa, Liquid, Pycnometric method

Cl.N[C@@H](CCC(=O)O)C(=O)O [L-glutamic acid hydrochloride] + O
mass density [kg/m3]
Conditions | m1 = 0.01009 | m1 = 0.02021 | m1 = 0.02997 | m1 = 0.03992 | m1 = 0.05011 | m1 = 0.06005
298.15 K | 1000 | 1000.9 | 1001.6 | 1002.3 | 1002.9 | 1003.6
303.15 K | 998.9 | 999.9 | 1000.6 | 1001.2 | 1001.8 | 1002.4
308.15 K | 997.6 | 998.7 | 999.4 | 1000 | 1000.6 | 1001.1
313.15 K | 996.1 | 997.3 | 998 | 998.6 | 999.2 | 999.8
